According to paper PMC7948977 (The Journal of Biological Chemistry, 2020):

What was measured:
[1] = molecular target: T1, ASFV dUTPase (African swine fever virus, UniProt Q65199); assay type: biochemical
[2] = test system: swine dUTPase; assay type: biochemical
[3] = molecular target: T1, ASFV dUTPase; assay: biochemical; assay type: binding

T1 sequence (Q65199 whole entry, looked up): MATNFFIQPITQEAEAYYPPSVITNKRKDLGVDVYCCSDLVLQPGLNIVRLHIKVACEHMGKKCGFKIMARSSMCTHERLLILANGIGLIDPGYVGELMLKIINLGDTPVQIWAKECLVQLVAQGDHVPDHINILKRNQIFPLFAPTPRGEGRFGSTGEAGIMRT

Row | Compound | inhibition of enzyme activity of ASFV dUTPase [1] | selectivity of inhibitory activity for ASFV dUTPase over swine dUTPase [2] | Kd [3] | mode of inhibition [3]
1 | O=c1ccn(CCCCNC(c2ccccc2)(c2ccccc2)c2ccccc2)c(=O)[nH]1 [compound 1] | dose-dependent manner | selective for ASFV dUTPase over swine dUTPase | 15.6 µM | competitive inhibitor
2 | O=c1ccn(CCCCOC(c2ccccc2)(c2ccccc2)c2ccccc2)c(=O)[nH]1 [compound 2] | dose-dependent manner | – | cannot be calculated | –
